Assay results taken from US20230348424A1, “HETEROCYCLIC COMPOUNDS AND METHODS OF USE” (Schrödinger, Inc., priority 2022, published 2023).

Biological target: SOS1:KRAS (G12C) interaction (Homo sapiens (Human), UniProt Q07889)
Test: SOS1 KRas(G12C) FRET Assay
Type: binding
Details: 0.5 nM His10-SOS1 (res. 564-1049), 2.5 nM GST-KRAS G12C (res. 1-169), 2 hrs at RT
Procedure: Inhibition of the SOS 1:KRAS interaction was measured using purified GST-tagged KRAS (res. 1-169, G12C, purified based on Hillig, et al., Proc Natl Acad Sci USA (2019); 116(7):2551-2560) and recombinant His10-SOS1 (res. 564-1049; purified based on Hillig, et al.). The final assay was performed at 20 uL with 0.5 nM SOS1 protein and 2.5 nM KRAS protein in a buffer of PBS, 0.1% BSA, 5 mM MgCh, 0.0025% Igepal, 100 mM KF, 5 mM DTT in a white 384 square well OptiPlate (PerkinElmer, Cat. 6007290). A 2x KRAS working solution was prepared in an assay buffer containing 5 nM GST-KRAS G12C and 2 nM anti-GST-Eu(K) (Cisbio, Cat. 61GSTKLA) and pre-incubated for 15 minutes at 25° C. […] The final DMSO concentration is 0.5%. Plates were incubated at RT for 2 hrs before the FRET signal was measured using Envision at emission 665 nm and 615 nm. FRET signal was converted to percentage of protein-protein interaction using the following equation:
• C: signal with compound treatment • P: signal for positive control (DMSO) • N: signal for negative control (no SOS1 added)
IC50 and Hill coefficients were obtained using Graph Pad Prism (Graph Pad software, Inc, USA) with non-linear regression analysis.

SOS1:KRAS (G12C) interaction, sequence (Q07889 564-1049, stated change not applied): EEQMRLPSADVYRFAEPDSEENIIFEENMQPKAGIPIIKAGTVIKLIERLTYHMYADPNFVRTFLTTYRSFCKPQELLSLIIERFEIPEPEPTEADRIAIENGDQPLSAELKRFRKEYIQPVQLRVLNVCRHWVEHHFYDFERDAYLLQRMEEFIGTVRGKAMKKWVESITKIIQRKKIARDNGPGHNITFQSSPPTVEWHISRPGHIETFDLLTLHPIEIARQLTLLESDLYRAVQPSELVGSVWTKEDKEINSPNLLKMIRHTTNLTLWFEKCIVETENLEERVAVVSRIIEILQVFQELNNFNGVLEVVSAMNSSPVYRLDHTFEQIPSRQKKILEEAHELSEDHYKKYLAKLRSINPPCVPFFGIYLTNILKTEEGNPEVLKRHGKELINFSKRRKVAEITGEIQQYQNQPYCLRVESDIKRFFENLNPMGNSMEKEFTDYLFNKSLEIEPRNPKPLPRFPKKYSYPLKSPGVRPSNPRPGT

SMILES | IC50 [nM]
C[C@@H](NC(=O)c1cn(C2(C(F)F)CC2)c(=O)cc1N[C@@H]1CCN2CCC[C@H]2C1)c1cccc(C(F)F)c1F (single isomer, unassigned) [Example 303] | 18.2
C[C@@H](NC(=O)c1cn(C2(C(F)F)CC2)c(=O)cc1N[C@H]1CCN2CCC[C@@H]2C1)c1cccc(C(F)F)c1F (single isomer, unassigned) [Example 304] | 25.7
C[C@@H](NC(=O)c1cn(C2(C(F)F)CC2)c(=O)cc1N[C@H]1CCN2CCC[C@H]2C1)c1cccc(C(F)F)c1F (single isomer, unassigned) [Example 305] | 23.3
C[C@@H](NC(=O)c1cn(C2(C(F)F)CC2)c(=O)cc1N[C@@H]1CCN2CCC[C@@H]2C1)c1cccc(C(F)F)c1F (single isomer, unassigned) [Example 306] | 41.7
C[C@@H](NC(=O)c1cn([C@@H]2CCOC(C)(C)C2)c(=O)cc1NC1CCN(C)CC1)c1cccc(C(F)F)c1F (single isomer, unassigned) [Example 307] | 4.9
C[C@@H](NC(=O)c1cn([C@H]2CCOC(C)(C)C2)c(=O)cc1NC1CCN(C)CC1)c1cccc(C(F)F)c1F (single isomer, unassigned) [Example 308] | 17.9
C[C@@H](NC(=O)c1cn(C2(C(F)F)CC2)c(=O)cc1N[C@H]1CCN(C)C2(CC2)C1)c1cccc(C(F)F)c1F (single isomer, unassigned) [Example 311] | 9.7
C[C@@H](NC(=O)c1cn(C2(C(F)F)CC2)c(=O)cc1N[C@@H]1CCN(C)C2(CC2)C1)c1cccc(C(F)F)c1F (single isomer, unassigned) [Example 312] | 35.6
Cc1c([C@@H](C)NC(=O)c2cn(C3CCOCC3)c(=O)cc2NC2CCN(C)CC2)cccc1C(F)(F)F [Example 1, (R)-N-(I-(2-methyl-3-(trifluoromethyl)phenyl)ethyl)-4-((I-methylpiperidin-4-yl)amino)-6-oxo-1-(tetrahydro-2H-pyran-4-yl)-1,6-dihydropyridine-3-carboxamide] | 27.4
Cc1c([C@@H](C)NC(=O)c2cn(C3CCOCC3)c(=O)cc2NCC23CCCN2CCC3)cccc1C(F)(F)F [Example 11, (R)-N-(1-(2-methyl-3-(trifluoromethyl)phenyl)ethyl)-6-oxo-4-(((tetrahydro-1H-pyrrolizin-7a(5H)-yl)methyl)amino)-1-(tetrahydro-2H-pyran-4-yl)-1,6-dihydropyridine-3-carboxamide] | 37.6
Cc1c([C@@H](C)NC(=O)c2cn(C3CCOCC3)c(=O)cc2NC2CCN(CC(F)(F)F)CC2)cccc1C(F)(F)F [Example 15, (R)-N-(1-(2-methyl-3-(trifluoromethyl)phenyl)ethyl)-6-oxo-1-(tetrahydro-2H-pyran-4-yl)-4-((1-(2,2,2-trifluoroethyl)piperidin-4-yl)amino)-1,6-dihydropyridine-3-carboxamide] | 847
Cc1c([C@@H](C)NC(=O)c2cn(C3CCOCC3)c(=O)c(Br)c2NC2CCN(C)CC2)cccc1C(F)(F)F [Example 17, (R)-5-bromo-N-(1-(2-methyl-3-(trifluoromethyl)phenyl)ethyl)-4-((1-methylpiperidin-4-yl)amino)-6-oxo-1-(tetrahydro-2H-pyran-4-yl)-1,6-dihydropyridine-3-carboxamide] | 717
COc1c(NC2CCN(C)CC2)c(C(=O)N[C@H](C)c2cccc(C(F)(F)F)c2C)cn(C2CCOCC2)c1=O [Example 18, (R)-5-methoxy-N-(1-(2-methyl-3-(trifluoromethyl)phenyl)ethyl)-4-((1-methylpiperidin-4-yl)amino)-6-oxo-1-(tetrahydro-2H-pyran-4-yl)-1,6-dihydropyridine-3-carboxamide] | 77.8
Cc1c([C@@H](C)NC(=O)c2cn(C3CCOCC3)c(=O)c(C)c2NC2CCN(C)CC2)cccc1C(F)(F)F [Example 19, (R)-5-methyl-N-(1-(2-methyl-3-(trifluoromethyl)phenyl)ethyl)-4-((1-methylpiperidin-4-yl)amino)-6-oxo-1-(tetrahydro-2H-pyran-4-yl)-1,6-dihydropyridine-3-carboxamide] | 347
Cc1c([C@@H](C)NC(=O)c2cn(C3CCOCC3)c(=O)cc2N[C@H]2C[C@@H](N(C)C)C2)cccc1C(F)(F)F [Example 27] | 21.8
Cc1c([C@@H](C)NC(=O)c2cn(C3CCOCC3)c(=O)cc2NC2CN(C)C2)cccc1C(F)(F)F [Example 28, (R)-N-(1-(2-methyl-3-(trifluoromethyl)phenyl)ethyl)-4-((1-methylazetidin-3-yl)amino)-6-oxo-1-(tetrahydro-2H-pyran-4-yl)-1,6-dihydropyridine-3-carboxamide] | 59.2
Cc1c([C@@H](C)NC(=O)c2cn(C3CCOCC3)c(=O)cc2NCC2(F)CN(C)C2)cccc1C(F)(F)F [Example 30, (R)-4-(((3-fluoro-1-methylazetidin-3-yl)methyl)amino)-N-(1-(2-methyl-3-(trifluoromethyl)phenyl)ethyl)-6-oxo-1-(tetrahydro-2H-pyran-4-yl)-1,6-dihydropyridine-3-carboxamide] | 36.3
Cc1c([C@@H](C)NC(=O)c2cn(C3CCOCC3)c(=O)cc2N[C@H]2CCCCN(C)C2)cccc1C(F)(F)F [Example 35, N-((R)-1-(2-methyl-3-(trifluoromethyl)phenyl)ethyl)-4-(((S)-1-methylazepan-3-yl)amino)-6-oxo-1-(tetrahydro-2H-pyran-4-yl)-1,6-dihydropyridine-3-carboxamide] | 44
Cc1c([C@@H](C)NC(=O)c2cn(C3CCOCC3)c(=O)cc2N[C@@H]2CCCCN(C)C2)cccc1C(F)(F)F [Example 36, N-((R)-1-(2-methyl-3-(trifluoromethyl)phenyl)ethyl)-4-(((R)-1-methylazepan-3-yl)amino)-6-oxo-1-(tetrahydro-2H-pyran-4-yl)-1,6-dihydropyridine-3-carboxamide] | 30.8
C[C@@H](NC(=O)c1cn(C2CCOCC2)c(=O)cc1NC1CCN(C)CC1)c1cccc(C(F)F)c1F [Example 41, (R)-N-(1-(3-(difluoromethyl)-2-fluorophenyl)ethyl)-4-((1-methylpiperidin-4-yl)amino)-6-oxo-1-(tetrahydro-2H-pyran-4-yl)-1,6-dihydropyridine-3-carboxamide] | 7.8
Cc1c([C@@H](C)NC(=O)c2cn(C3CCOCC3)c(=O)cc2NC2CNC2)cccc1C(F)(F)F [Example 43, (R)-4-(azetidin-3-ylamino)-N-(1-(2-methyl-3-(trifluoromethyl)phenyl)ethyl)-6-oxo-1-(tetrahydro-2H-pyran-4-yl)-1,6-dihydropyridine-3-carboxamide] | 75.7
Cc1c([C@@H](C)NC(=O)c2cn(C3CCOCC3)c(=O)cc2NC2CCNC2)cccc1C(F)(F)F (stereo partly drawn) [Example 44, N-((R)-1-(2-methyl-3-(trifluoromethyl)phenyl)ethyl)-6-oxo-4-(pyrrolidin-3-ylamino)-1-(tetrahydro-2H-pyran-4-yl)-1,6-dihydropyridine-3-carboxamide] | 34.6
Cc1c([C@@H](C)NC(=O)c2cn(C3CCOCC3)c(=O)cc2NCCONC(=N)N)cccc1C(F)(F)F [Example 46, (R)-4-((2-(guanidinooxy)ethyl)amino)-N-(1-(2-methyl-3-(trifluoromethyl)phenyl)ethyl)-6-oxo-1-(tetrahydro-2H-pyran-4-yl)-1,6-dihydropyridine-3-carboxamide] | 18.2
C[C@@H](NC(=O)c1cn(C2(C(F)F)CC2)c(=O)cc1NC1CCN(C)CC1)c1cccc2c1OCC2(F)F [Example 53, (R)-N-(1-(3,3-difluoro-2,3-dihydrobenzofuran-7-yl)ethyl)-1-(1-(difluoromethyl)cyclopropyl)-4-((1-methylpiperidin-4-yl)amino)-6-oxo-1,6-dihydropyridine-3-carboxamide] | 15.6
C[C@@H](NC(=O)c1cn(C2(C(F)F)CC2)c(=O)cc1NC1CCN(C)CC1)c1cccc2c(F)coc12 [Example 54, (R)-1-(1-(difluoromethyl)cyclopropyl)-N-(1-(3-fluorobenzofuran-7-yl)ethyl)-4-((1-methylpiperidin-4-yl)amino)-6-oxo-1,6-dihydropyridine-3-carboxamide] | 26.6
C[C@@H](NC(=O)c1cn(C2(C(F)F)CC2)c(=O)cc1N[C@@H]1[C@@H]2CN(C)C[C@@H]21)c1cccc(C(F)F)c1F [Example 56, N-((R)-1-(3-(difluoromethyl)-2-fluorophenyl)ethyl)-1-(1-(difluoromethyl)cyclopropyl)-4-(((1R,5S,6r)-3-methyl-3-azabicyclo[3.1.0]hexan-6-yl)amino)-6-oxo-1,6-dihydropyridine-3-carboxamide] | 34.2
[2H]C([2H])([2H])N1C[C@@H]2[C@H](C1)[C@H]2Nc1cc(=O)n(C2(C(F)F)CC2)cc1C(=O)N[C@H](C)c1cccc(C(F)F)c1F [Example 57, N-((R)-1-(3-(difluoromethyl)-2-fluorophenyl)ethyl)-1-(1-(difluoromethyl)cyclopropyl)-4-(((1R,5S,6s)-3-(methyl-d3)-3-azabicyclo[3.1.0]hexan-6-yl)amino)-6-oxo-1,6-dihydropyridine-3-carboxamide] | 28.2
